We go through 5 compounds from patent publication US11980630B2 (priority 2017, dated 2024).

In data set [1] the test system is Rift Valley Fever. The data set is described as follows: microbe, parasite or virus in culture. The format is cell-based. The settings on record: Huh-7, read-out: Rift Valley Fever EC50.
In data set [2] the test system is MARV (Ci67). The data set is described as follows: organism not typed. The conditions noted are these: for EC50: HeLa. The format is cell-based, Marburg virus.
Data set [3] has as its system SUDV (Gulu). The data set is described as follows: microbe, parasite or virus in culture. The data set is classed as cell-based, Sudan virus. The conditions noted are these: for EC50: Sudan ebolavirus, HeLa.
The subject of data set [4] is Lassa Virus. The data set is described as follows: microbe, parasite or virus in culture. The format is cell-based. The settings on record: Mammarenavirus lassaense, Huh-7, read-out: Lassa Virus EC50.
Data set [5] relates to HeLa cells. The settings on record: human.
In data set [6] the test system is Huh7 cells. The conditions noted are these: human.
Data set [7] deals with EBOV (Makona). The data set is described as follows: microbe, parasite or virus in culture. The format is cell-based, Ebola virus. The settings on record: for EC50: Zaire ebolavirus, HeLa.
The subject of data set [8] is recombinant reporter EBOV. The data set is described as follows: microbe, parasite or virus in culture. The conditions noted are these: for EC50: Zaire ebolavirus. The data set is classed as cell-based, Ebola virus.
Data set [9] has as its target MERS polymerase complex (12HC/7HC8) (Middle East respiratory syndrome-related coronavirus, UniProt K9N7C7). The format is biochemical.
For data set [10], the target named is T1, RSV MTase (Human respiratory syncytial virus A, UniProt P28887).
T1 construct: RSV MTase: 4 μM
The data set is described as follows: biochemical. The data set is classed as biochemical.

Data set [11] has as its target T2, Dengue virus NS5 MTase (Dengue virus type 2, UniProt P29990).
T2 construct: Dengue virus NS5 MTase: 500 nM
T2 sequence (P29990 2493-2755 limits assumed): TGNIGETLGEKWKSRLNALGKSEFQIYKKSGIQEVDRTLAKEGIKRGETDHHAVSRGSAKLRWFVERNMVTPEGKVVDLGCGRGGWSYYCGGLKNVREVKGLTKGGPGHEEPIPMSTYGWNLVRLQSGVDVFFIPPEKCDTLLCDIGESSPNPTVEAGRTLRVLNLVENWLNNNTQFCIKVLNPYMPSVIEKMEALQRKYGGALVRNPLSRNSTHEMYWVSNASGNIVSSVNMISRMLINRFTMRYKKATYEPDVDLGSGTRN
The data set is described as follows: biochemical.

The target of data set [12] is T3, hMPV MTase (Human metapneumovirus, UniProt Q6WB93).
T3 construct: hMPV MTase: 1 μM
The data set is described as follows: biochemical. The data set is classed as biochemical.

Data set [13] has as its target SARS polymerase complex (12HC/7HC8) (Severe acute respiratory syndrome coronavirus, UniProt P0C6X7). The format is biochemical.
For data set [14], the target named is T4, Zika virus NS5 MTase (Zika virus, UniProt A0A024B7W1).
T4 construct: Zika virus NS5 MTase: 500 nM
The data set is described as follows: biochemical.

The target of data set [15] is SARS-CoV nsp14 (N7 MTase) (Severe acute respiratory syndrome coronavirus, UniProt P0C6X7). The format is biochemical.
The target of data set [16] is human N7 MTase (hN7 or RNMT) (Homo sapiens, UniProt O43148). The data set is described as follows: biochemical.
Data set [17] relates to EBOV. The settings on record: cited from earlier work.
In data set [18] the test system is MARV. The conditions noted are these: cited from earlier work.
A short description of data set [19]: in vitro. The settings on record: human.
Where [20] appears, read: read-out: MARV EC50 (50% inhibition of virus-induced CPE).
Setting [21] is: read-out: SUDV EC50 (50% inhibition of virus-induced CPE).
Setting [22] is: read-out: EBOV EC50 (50% inhibition of virus-induced CPE).
The mark [23] stands for this setting: Huh-7, read-out: EC50 against EBOV in Huh7 cells.

Entries after “also recorded” stand apart in the source; their conditions may differ. Read-outs that look alike come from different tables or passages of the source.

T3 sequence (Q6WB93 1599-2005 limits assumed): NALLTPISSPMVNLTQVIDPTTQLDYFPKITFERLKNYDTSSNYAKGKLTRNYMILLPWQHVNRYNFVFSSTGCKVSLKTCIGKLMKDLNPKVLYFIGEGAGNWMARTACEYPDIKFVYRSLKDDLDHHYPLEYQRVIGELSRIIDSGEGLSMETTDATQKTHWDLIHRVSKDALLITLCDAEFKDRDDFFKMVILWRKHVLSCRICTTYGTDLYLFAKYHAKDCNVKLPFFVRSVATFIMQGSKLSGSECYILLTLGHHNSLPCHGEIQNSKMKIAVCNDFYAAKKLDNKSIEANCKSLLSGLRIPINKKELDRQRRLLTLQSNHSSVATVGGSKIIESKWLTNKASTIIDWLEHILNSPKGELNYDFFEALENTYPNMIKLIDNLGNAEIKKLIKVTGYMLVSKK
T4 sequence (A0A024B7W1 2521-2785 limits assumed): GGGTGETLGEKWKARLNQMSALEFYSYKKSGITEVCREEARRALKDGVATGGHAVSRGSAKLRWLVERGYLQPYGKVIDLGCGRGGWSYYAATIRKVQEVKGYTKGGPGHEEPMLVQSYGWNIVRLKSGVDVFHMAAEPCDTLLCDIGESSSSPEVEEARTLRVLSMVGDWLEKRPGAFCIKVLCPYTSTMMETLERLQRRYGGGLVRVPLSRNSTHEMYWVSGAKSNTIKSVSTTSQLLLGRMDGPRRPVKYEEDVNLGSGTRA
T1 sequence (P28887 1820-2008 limits assumed): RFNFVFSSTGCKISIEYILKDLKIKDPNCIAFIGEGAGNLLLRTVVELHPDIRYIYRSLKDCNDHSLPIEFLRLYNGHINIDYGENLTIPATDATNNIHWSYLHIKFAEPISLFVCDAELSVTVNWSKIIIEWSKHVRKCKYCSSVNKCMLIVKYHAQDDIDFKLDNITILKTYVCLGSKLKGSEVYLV
MERS polymerase complex (12HC/7HC8), sequence (K9N7C7 4378-5310 limits assumed): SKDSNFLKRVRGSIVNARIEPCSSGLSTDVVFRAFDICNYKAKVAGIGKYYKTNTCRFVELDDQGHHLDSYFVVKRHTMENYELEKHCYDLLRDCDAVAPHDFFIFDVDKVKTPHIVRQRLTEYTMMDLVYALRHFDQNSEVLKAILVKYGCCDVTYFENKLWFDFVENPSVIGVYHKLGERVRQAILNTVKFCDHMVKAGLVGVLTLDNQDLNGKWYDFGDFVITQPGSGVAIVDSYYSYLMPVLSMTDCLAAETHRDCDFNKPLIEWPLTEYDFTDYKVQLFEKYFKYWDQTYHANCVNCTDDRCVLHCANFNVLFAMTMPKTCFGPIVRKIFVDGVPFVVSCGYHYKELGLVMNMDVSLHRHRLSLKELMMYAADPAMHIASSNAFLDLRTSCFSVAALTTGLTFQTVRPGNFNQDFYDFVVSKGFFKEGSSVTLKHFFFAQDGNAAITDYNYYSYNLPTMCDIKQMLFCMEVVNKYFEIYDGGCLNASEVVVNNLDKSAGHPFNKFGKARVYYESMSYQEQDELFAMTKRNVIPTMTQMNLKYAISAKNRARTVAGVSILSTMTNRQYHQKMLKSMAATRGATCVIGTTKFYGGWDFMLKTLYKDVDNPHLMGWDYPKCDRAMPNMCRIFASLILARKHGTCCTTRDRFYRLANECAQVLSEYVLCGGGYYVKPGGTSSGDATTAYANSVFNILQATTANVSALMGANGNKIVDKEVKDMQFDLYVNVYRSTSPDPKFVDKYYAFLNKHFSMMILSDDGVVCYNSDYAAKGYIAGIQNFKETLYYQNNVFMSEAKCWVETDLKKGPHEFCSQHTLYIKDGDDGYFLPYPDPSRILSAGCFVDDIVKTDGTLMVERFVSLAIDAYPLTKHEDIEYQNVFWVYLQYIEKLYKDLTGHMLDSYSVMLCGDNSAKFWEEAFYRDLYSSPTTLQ
MERS polymerase complex (12HC/7HC8), sequence (K9N7C7 3846-3928 partner limits assumed): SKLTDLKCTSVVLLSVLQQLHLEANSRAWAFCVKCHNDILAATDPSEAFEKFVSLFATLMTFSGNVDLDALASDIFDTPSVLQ
MERS polymerase complex (12HC/7HC8), sequence (K9N7C7 3929-4127 partner limits assumed): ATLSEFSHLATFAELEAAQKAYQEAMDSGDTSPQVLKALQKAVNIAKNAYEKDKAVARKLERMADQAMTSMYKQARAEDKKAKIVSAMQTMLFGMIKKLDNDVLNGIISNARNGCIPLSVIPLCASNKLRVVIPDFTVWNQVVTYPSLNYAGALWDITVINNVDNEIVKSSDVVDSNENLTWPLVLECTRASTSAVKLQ
human N7 MTase (hN7 or RNMT), sequence (O43148 whole entry): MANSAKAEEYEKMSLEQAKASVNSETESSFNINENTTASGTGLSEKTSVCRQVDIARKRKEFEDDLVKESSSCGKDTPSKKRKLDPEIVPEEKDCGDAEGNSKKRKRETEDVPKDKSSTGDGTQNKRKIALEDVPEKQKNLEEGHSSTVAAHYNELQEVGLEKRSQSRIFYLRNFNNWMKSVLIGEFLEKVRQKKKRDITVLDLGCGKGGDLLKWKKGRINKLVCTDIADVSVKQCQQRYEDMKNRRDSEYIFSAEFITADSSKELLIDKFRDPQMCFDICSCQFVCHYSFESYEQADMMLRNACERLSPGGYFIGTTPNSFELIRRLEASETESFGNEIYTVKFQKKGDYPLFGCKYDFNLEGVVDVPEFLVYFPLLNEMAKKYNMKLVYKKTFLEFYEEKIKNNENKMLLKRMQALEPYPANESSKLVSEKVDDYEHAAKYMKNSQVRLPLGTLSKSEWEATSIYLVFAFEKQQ

As usually defined, the EC50 is the concentration that produces a half-maximal response. Consider `COc1nc(N)ncc1-c1cn(COCCO)cn1` [Compound 1], for which the half-maximal effective concentration (EC50) in [1] is > 50 µM; in [2] (setting [20]), > 100 µM; in [3] (setting [21]), > 100 µM; in [4], > 50 µM; in data set [7] (setting [22]), > 100 µM; in data set [8] (Huh-7, read-out: EBOV EC50), 2.2 ± 0.3 µM. Besides, the concentration for a half-maximal effect (EC50) in data set [8] (setting [23]) turned out to be 2.2 ± 0.3 µM. The “Antiviral activity against MARV” value in data set [2] was “no detectable activity”. For the same compound, the “Antiviral activity against SUDV” value in data set [3] is “no detectable activity”. For the same compound, the CC50 was > 100 µM in data set [5] and > 50 µM in data set [6]. Moreover, the “Antiviral activity against EBOV” value in data set [7] is on record as “no detectable activity”. The “Antiviral activity against recombinant reporter EBOV” value in [8] is listed as “exhibited antiviral activity”.
As usually defined, the IC50 is the concentration that inhibits the measured activity by half. A lower IC50 goes with greater potency in that assay. Turning to `COc1nc(N)ncc1-c1cn(COCCOP(=O)(O)OP(=O)(O)OP(=O)(O)O)cn1` [Compound 2MR04], in data set [9], the “Reduction of product / oligonucleotide synthesis by MERS polymerase” value is listed as “as effective as the 3′dGTP inhibitor; also recorded: as effective, not more effective, in reduction of oligonucleotide synthesis”. Besides, the IC50 in data set [10] is ~18 µM; in data set [11], ~22 µM; in data set [12], ~31 µM; in data set [14] (IC50 Zika NS5-MTase) it was ~22 µM; in data set [14] (IC50 in another testing (FIG. 15, effect on Zika Virus)), ~17 µM; in data set [16], ~49 µM. For the same compound, the “Inhibition of RSV MTase activity” value in data set [10] is reported as “strongly inhibiting”. Further, the “Inhibition of Dengue virus NS5 MTase activity” value in data set [11] was “inhibits”. For the same compound, the “Inhibition of hMPV MTase activity” value in [12] is reported as “strongly inhibiting; also recorded: inhibits”. Moreover, the “Reduction of product / oligonucleotide synthesis by SARS polymerase” value in [13] was “comparable to the other inhibitors”. The “Inhibition of Zika virus MTase activity” value in data set [14] is given as “inhibits”. Moreover, the “Inhibition of SARS-nsp14 MTase activity” value in [15] is reported as “inhibits”. Besides, the “Inhibition of RNMT (RNA Guanine-7 Methyltransferase)” value in data set [16] is listed as “not inhibited”.
In the case of `CCC(CC)COC(=O)[C@H](C)N[P@](=O)(OC[C@H]1O[C@@](C#N)(c2ccc3c(N)ncnn23)[C@H](O)[C@@H]1O)Oc1ccccc1` [GS-5734], in data set [17], the “Activity against EBOV (literature, words)” value is recorded as “very potent activity”. In addition, in data set [18], the “Activity against MARV (literature, words)” value is recorded as “very potent activity”.
Turning to `COc1nc(N)ncc1-c1cn(COCCOC(C)=O)cn1` [Compound 2], the EC50 in data set [2] (setting [20]) was 70 ± 27 µM; in data set [3] (setting [21]), 20 ± 10 µM; in data set [7] (setting [22]), 44 ± 13 µM. Also, the CC50 in data set [5] and in [19] was > 100 µM each time.
On to `CCC(CC)OC(=O)[C@@H](C)N[P@](=O)(OCCOCn1cnc(-c2cnc(N)nc2OC)c1)Oc1ccccc1` [Compound 3], for which the EC50 in [1] is > 50 µM; in data set [2] (read-out: EC50 MARV in Hela cells (FIGS. 3-5)), 62.3 µM; in data set [2] (setting [20]) it was 62 ± 13 µM; in data set [3] (read-out: EC50 SUDV in Hela cells (FIGS. 3-5)) it was 6.85 µM; in data set [3] (read-out: EC50 against SUDV in HeLa cells), 7 ± 2 µM; in [3] (setting [21]), 7 ± 2 µM. In addition, the EC50 in data set [4] is > 50 µM; in data set [7] (setting [22]) it was 29 ± 9 µM; in data set [7] (read-out: EC50 EBOV in Hela cells (FIGS. 3-5)) it was 29.1 µM; in data set [7] (read-out: EC50 against EBOV in HeLa cells), 29 ± 9 µM; in [8] (Huh-7, read-out: EBOV EC50), 27.2 ± 2.2 µM; in data set [8] (setting [23]) it was 27.2 ± 2.2 µM. In addition, the “Antiviral activity against MARV” value in data set [2] is recorded as “Activity against all three viruses was observed”. Further, the “Antiviral activity against SUDV” value in data set [3] is listed as “best activity against SUDV”. Also, the CC50 was > 100 µM in data set [5] and > 50 µM in data set [6]. Moreover, the “Antiviral activity against EBOV” value in data set [7] is listed as “Activity against all three viruses was observed”. The “Antiviral activity against recombinant reporter EBOV” value in [8] was “active against EBOV at a similar concentration; also recorded: exhibited antiviral activity”. In data set [8], the “Potency of McGuigan prodrug relative to compound 1” value is ~10 fold.
